Measurements reported in patent publication US7981859B2, “Glycopeptide composition with improved antibiotic activity” (Xellia Pharmaceuticals APS, priority 2003, dated 2011).

Key:
S. aureus ATCC 6538 = assay: Modified "MIC" test in micro titer trays (liquid medium); assay type: cell-based, Staphylococcus aureus
Procedure: (§1) Potency of Teicoplanin TA2, TA3-1 alone or in combination was determined by agar diffusion assays. Furthermore, the antimicrobial effect of pure and spiked products was investigated through the determination of the minimum inhibitory concentration (MIC) by a modified “MIC” test in micro titer trays.
Pure TA3-1, (Teicoplanin Material B 96% TA2-X, 4% TA3-1) and mixtures thereof were used. The test strain used was S. aureus ATCC 6538 in final concentrations of 5×10^5/ml and 5×10^4/ml respectively. The test was carried out in micro titer trays as a modification of an ordinary MIC test. Instead of using two-fold dilutions, 0.40-1.20 μg/ml with 0.20 μl divisions and 1.0-4.0 μl/ml with 1.0 μl divisions was used. The trays were incubated at 37° C. The wells were examined after 24 hours and any visible growth was noted.
In order to strengthen the evidence some experiments were performed with a modified antimicrobial analysis of Teicoplanin, spiked with different amounts of TA3-1. It was carried out in liquid medium in contrast to the agar diffusion tests and determined the MIC values. The results are summarized in Table 4, (“MIC”-values of Teicoplanin and/or TA3-1 on S. aureus ATCC6538).
(§2) Potency of teicoplanin TA2, TA3-1 alone or in combinations was determined by agar diffusion assays as described in example 1. Modified MIC-values in microtitre trays were determined as described in example 1.

[1] = test system: Staphylococcus aureus ATCC 6538; assay: Microbiological potency by agar diffusion; assay type: cell-based
Procedure: Accordingly, in one embodiment a Teicoplanin composition as described herein, has a higher antibiotic activity than a corresponding Teicoplanin composition that has a %(mg TA3)/(mg TA3+TA2) of 6.5%, where the antibiotic activity is measured by a microbiological agar diffusion assay using Staphylococcus aureus ATCC 6538 as test strain and the measured potential potency (IU per mg TA2+TA3/g composition) is used to calculate the antibiotic activity.
Procedure for the Determination of Microbiological Potency by Agar Diffusion
as §1
The potency test is carried out according to the assay described below. […]
The results are analyzed by reading the zone diameters carefully with a 10× magnification and a precision of 0.1 mm. […]
as §2

MIC value relative to Targocid alone (times higher) (S. aureus ATCC 6538; Example 2, FIG. 6, MIC in μg powder/ml solution): 4-5 times
MIC (μg/ml) 5 × 10^4/ml S.aureus (S. aureus ATCC 6538; inoculum 5 × 10^4/ml, 37° C., read after 24 hours, lowest concentration without visible growth): 2–3 μg/ml
MIC (μg/ml) 5 × 10^5/ml S.aureus (S. aureus ATCC 6538; inoculum 5 × 10^5/ml, 37° C., read after 24 hours, lowest concentration without visible growth): 2–3 μg/ml
Compound: CC(=O)N[C@H]1[C@H](O[C@@H]2c3ccc(c(Cl)c3)Oc3cc4cc(c3O)Oc3ccc(cc3Cl)C[C@H]3NC(=O)[C@H](N)c5ccc(O)c(c5)Oc5cc(O)cc(c5)[C@H](NC3=O)C(=O)N[C@H]4C(=O)N[C@H]3C(=O)N[C@@H]2C(=O)N[C@H](C(=O)O)c2cc(O)cc(O[C@H]4O[C@H](CO)[C@@H](O)[C@H](O)[C@@H]4O)c2-c2cc3ccc2O)O[C@H](CO)[C@@H](O)[C@@H]1O [TA3-1, Teicoplanin A3-1]
Potency IU/mg powder ([1]; Example 1, agar diffusion, 2-point assay, potency of the powder as such): 570 IU/mg powder
potency by agar diffusion (IU/mg powder) compared with Targocid alone ([1]; Example 2, FIG. 5, Targocid/TA3-1 solutions mixed at different mass TA3-1%): much lower potency
